Assay results: PMC3155652 (Journal of inorganic biochemistry, 2011)
Ends that are not written are not given here.

B1: murine iNOS: murine inducible NOS (protein, UniProt P29477 1-1144, looked up)
Nitric oxide synthase, …: MACPWKFLFKVKSYQSDLKEEKDINNNVKKTPCAVLSPTIQDDPKSHQNGSPQLLTGTAQNVPESLDKLHVTSTRPQYVRIKNWGSGEILHDTLHHKATSDFTCKSKSCLGSIMNPKSLTRGPRDKPTPLEELLPHAIEFINQYYGSFKEAKIEEHLARLEAVTKEIETTGTYQLTLDELIFATKMAWRNAPRCIGRIQWSNLQVFDARNCSTAQEMFQHICRHILYATNNGNIRSAITVFPQRSDGKHDFRLWNSQLIRYAGYQMPDGTIRGDAATLEFTQLCIDLGWKPRYGRFDVLPLVLQADGQDPEVFEIPPDLVLEVTMEHPKYEWFQELGLKWYALPAVANMLLEVGGLEFPACPFNGWYMGTEIGVRDFCDTQRYNILEEVGRRMGLETHTLASLWKDRAVTEINVAVLHSFQKQNVTIMDHHTASESFMKHMQNEYRARGGCPADWIWLVPPVSGSITPVFHQEMLNYVLSPFYYYQIEPWKTHIWQNEKLRPRRREIRFRVLVKVVFFASMLMRKVMASRVRATVLFATETGKSEALARDLATLFSYAFNTKVVCMDQYKASTLEEEQLLLVVTSTFGNGDCPSNGQTLKKSLFMLRELNHTFRYAVFGLGSSMYPQFCAFAHDIDQKLSHLGASQLAPTGEGDELSGQEDAFRSWAVQTFRAACETFDVRSKHHIQIPKRFTSNATWEPQQYRLIQSPEPLDLNRALSSIHAKNVFTMRLKSQQNLQSEKSSRTTLLVQLTFEGSRGPSYLPGEHLGIFPGNQTALVQGILERVVDCPTPHQTVCLEVLDESGSYWVKDKRLPPCSLSQALTYFLDITTPPTQLQLHKLARFATDETDRQRLEALCQPSEYNDWKFSNNPTFLEVLEEFPSLHVPAAFLLSQLPILKPRYYSISSSQDHTPSEVHLTVAVVTYRTRDGQGPLHHGVCSTWIRNLKPQDPVPCFVRSVSGFQLPEDPSQPCILIGPGTGIAPFRSFWQQRLHDSQHKGLKGGRMSLVFGCRHPEEDHLYQEEMQEMVRKRVLFQVHTGYSRLPGKPKVYVQDILQKQLANEVLSVLHGEQGHLYICGDVRMARDVATTLKKLVATKLNLSEEQVEDYFFQLKSQKRYHEDIFGAVFSYGAKKGSALEEPKATRL
B2: nNOS: neuronal NOS (protein, UniProt P29475 1-1434, looked up)
Nitric oxide synthase 1: MEDHMFGVQQIQPNVISVRLFKRKVGGLGFLVKERVSKPPVIISDLIRGGAAEQSGLIQAGDIILAVNGRPLVDLSYDSALEVLRGIASETHVVLILRGPEGFTTHLETTFTGDGTPKTIRVTQPLGPPTKAVDLSHQPPAGKEQPLAVDGASGPGNGPQHAYDDGQEAGSLPHANGLAPRPPGQDPAKKATRVSLQGRGENNELLKEIEPVLSLLTSGSRGVKGGAPAKAEMKDMGIQVDRDLDGKSHKPLPLGVENDRVFNDLWGKGNVPVVLNNPYSEKEQPPTSGKQSPTKNGSPSKCPRFLKVKNWETEVVLTDTLHLKSTLETGCTEYICMGSIMHPSQHARRPEDVRTKGQLFPLAKEFIDQYYSSIKRFGSKAHMERLEEVNKEIDTTSTYQLKDTELIYGAKHAWRNASRCVGRIQWSKLQVFDARDCTTAHGMFNYICNHVKYATNKGNLRSAITIFPQRTDGKHDFRVWNSQLIRYAGYKQPDGSTLGDPANVQFTEICIQQGWKPPRGRFDVLPLLLQANGNDPELFQIPPELVLEVPIRHPKFEWFKDLGLKWYGLPAVSNMLLEIGGLEFSACPFSGWYMGTEIGVRDYCDNSRYNILEEVAKKMNLDMRKTSSLWKDQALVEINIAVLYSFQSDKVTIVDHHSATESFIKHMENEYRCRGGCPADWVWIVPPMSGSITPVFHQEMLNYRLTPSFEYQPDPWNTHVWKGTNGTPTKRRAIGFKKLAEAVKFSAKLMGQAMAKRVKATILYATETGKSQAYAKTLCEIFKHAFDAKVMSMEEYDIVHLEHETLVLVVTSTFGNGDPPENGEKFGCALMEMRHPNSVQEERKSYKVRFNSVSSYSDSQKSSGDGPDLRDNFESAGPLANVRFSVFGLGSRAYPHFCAFGHAVDTLLEELGGERILKMREGDELCGQEEAFRTWAKKVFKAACDVFCVGDDVNIEKANNSLISNDRSWKRNKFRLTFVAEAPELTQGLSNVHKKRVSAARLLSRQNLQSPKSSRSTIFVRLHTNGSQELQYQPGDHLGVFPGNHEDLVNALIERLEDAPPVNQMVKVELLEERNTALGVISNWTDELRLPPCTIFQAFKYYLDITTPPTPLQLQQFASLATSEKEKQRLLVLSKGLQEYEEWKWGKNPTIVEVLEEFPSIQMPATLLLTQLSLLQPRYYSISSSPDMYPDEVHLTVAIVSYRTRDGEGPIHHGVCSSWLNRIQADELVPCFVRGAPSFHLPRNPQVPCILVGPGTGIAPFRSFWQQRQFDIQHKGMNPCPMVLVFGCRQSKIDHIYREETLQAKNKGVFRELYTAYSREPDKPKKYVQDILQEQLAESVYRALKEQGGHIYVCGDVTMAADVLKAIQRIMTQQGKLSAEDAGVFISRMRDDNRYHEDIFGVTLRTYEVTNRLRSESIAFIEESKKDTDEVFSS

Columns and labels:
holo CaM = holo CaM to immobilized target peptide, ref [21]; cited from earlier work
holo Alexa-CaM [1] = target: T1, holo Alexa-CaM (Homo sapiens, UniProt P0DP23, T111W/T35C); type: binding; conditions: 2 mM EDTA, stopped-flow
holo Alexa-CaM [2] = target: T1, holo Alexa-CaM; assay: Apparent Kd calculated as koff/kon; type: binding
holo Alexa-CaM [3] = target: T1, holo Alexa-CaM; assay: Stopped-flow association kinetics of NOS target peptides with holo Alexa-CaM; type: binding; conditions: pH 8
[4] = cited from earlier work; for rate of electron transfer to heme from FMN: ref [49]; for interdomain electron transfer FMN to heme: laser flash photolysis, in the presence of CaM, ref [50], [51]

| Molecule | rate of electron transfer to heme from FMN [4] [s⁻¹] | interdomain electron transfer FMN to heme [4] [s⁻¹] | other results |
| --- | --- | --- | --- |
| nNOS725–750: immobilized nNOS target peptide of previous SPR study (NGTPTKRRAIGFKKLAEAVKFSAKLM; UniProt P29475 725-750, looked up, fragment) |  |  | kon (binding rate by SPR) (holo CaM): 158000 M⁻¹ s⁻¹ |
| CC[C@H](C)[C@H](NC(=O)[C@H](CCCCN)NC(=O)[C@@H](NC(=O)[C@H](C)NC(=O)[C@H](CC(N)=O)NC(=O)[C@H](C)NC(=O)[C@@H](NC(=O)[C@H](CCC(=O)O)NC(=O)[C@H](CCCCN)NC(=O)[C@H](Cc1ccccc1)NC(=O)[C@@H](NC(=O)[C@H](CCCCN)NC(=O)[C@H](CCCCN)NC(=O)[C@@H](N)CCCNC(=N)N)[C@@H](C)O)C(C)C)C(C)C)C(=O)N[C@@H](CO)C(=O)N[C@@H](C)C(=O)N[C@@H](CO)C(=O)N[C@@H](CC(C)C)C(=O)N[C@@H](CCSC)C(=O)NCC(=O)O [eNOS492–511] |  |  | fast phase, share of overall FW110 increase (holo Alexa-CaM [1]): 83% |
| RRAIGFKKLAEAVKFSAKLMGGAM [nNOS726–749] |  |  | Kd (holo Alexa-CaM [2]): 5.6 nM; fast phase, share of overall FW110 increase (holo Alexa-CaM [1]): 81%; kon (holo Alexa-CaM [3]): 6.6e+08 M⁻¹ s⁻¹ |
| iNOS: inducible NOS | 11 |  |  |
| human iNOS: human inducible NOS |  | 34 |  |
| rat nNOS: rat neuronal NOS in the presence of CaM |  | 36 |  |
| eNOS: endothelial NOS | 2 to 5 |  |  |
| B1 |  | 35 |  |
| B2 | 40 to 50 |  | interdomain electron transfer FMN to heme in absence of CaM ([4]; absence of CaM, ref [51]): No such redox event was observed |
